In PubChem BioAssay (NCI):
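Briefly, cells in 96-well plates were exposed to five compound concentrations for 48 h, and endpoints were estimated by linear interpolation. At the TGI there is no net growth.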

What was measured:
Assay in all cases: NCI-60 cell line screen, 48 h
HCT-15 colon = system: HCT-15 colon
CCRF-CEM leukemia = system: CCRF-CEM leukemia
SK-MEL-28 melanoma = system: SK-MEL-28 melanoma
EKVX NSCLC = system: EKVX NSCLC
HCC-2998 colon = system: HCC-2998 colon
MDA-MB-231 breast = system: MDA-MB-231 breast
ACHN renal = system: ACHN renal
UACC-62 melanoma = system: UACC-62 melanoma
SW-620 colon = system: SW-620 colon
HOP-92 NSCLC = system: HOP-92 NSCLC
UO-31 renal = system: UO-31 renal
HCT-116 colon = system: HCT-116 colon
U251 CNS = system: U251 CNS
SR leukemia = system: SR leukemia
SK-MEL-5 melanoma = system: SK-MEL-5 melanoma
PC-3 prostate = system: PC-3 prostate
UACC-257 melanoma = system: UACC-257 melanoma
SK-OV-3 ovarian = system: SK-OV-3 ovarian
OVCAR-5 ovarian = system: OVCAR-5 ovarian
OVCAR-4 ovarian = system: OVCAR-4 ovarian
NCI/ADR-RES ovarian = system: NCI/ADR-RES ovarian
MALME-3M melanoma = system: MALME-3M melanoma
NCI-H460 lung = system: NCI-H460 lung
T-47D breast = system: T-47D breast
A498 renal = system: A498 renal
CAKI-1 renal = system: CAKI-1 renal
COLO 205 colon = system: COLO 205 colon
TK-10 renal = system: TK-10 renal
IGROV1 ovarian = system: IGROV1 ovarian
LOX IMVI melanoma = system: LOX IMVI melanoma
MCF7 breast = system: MCF7 breast
HOP-62 NSCLC = system: HOP-62 NSCLC
K-562 leukemia = system: K-562 leukemia
HT29 colon = system: HT29 colon
MOLT-4 leukemia = system: MOLT-4 leukemia
HL-60(TB) leukemia = system: HL-60(TB) leukemia
SF-295 CNS = system: SF-295 CNS
RPMI-8226 leukemia = system: RPMI-8226 leukemia
MDA-N = system: MDA-N
OVCAR-8 ovarian = system: OVCAR-8 ovarian
M14 melanoma = system: M14 melanoma
A549 NSCLC = system: A549 NSCLC
DU-145 prostate = system: DU-145 prostate
OVCAR-3 ovarian = system: OVCAR-3 ovarian
SF-268 CNS = system: SF-268 CNS
NCI-H522 lung = system: NCI-H522 lung
MDA-MB-435 = system: MDA-MB-435
SNB-19 CNS = system: SNB-19 CNS
KM12 colon = system: KM12 colon
SF-539 CNS = system: SF-539 CNS
RXF 393 renal = system: RXF 393 renal
SNB-75 CNS = system: SNB-75 CNS
NCI-H226 lung = system: NCI-H226 lung
SN12C renal = system: SN12C renal
SK-MEL-2 melanoma = system: SK-MEL-2 melanoma
NCI-H23 lung = system: NCI-H23 lung
786-0 renal = system: 786-0 renal

Measured: TGI

COc1ccc2c(=O)c(O)c(-c3ccc(OC)c(OC)c3)oc2c1
46 µM: NCI-H522 lung
45.8 µM: TK-10 renal
9.17 µM: HOP-92 NSCLC
11.9 µM: OVCAR-3 ovarian
0.599 µM: OVCAR-4 ovarian
8.25 µM: NCI/ADR-RES ovarian
5.22 µM: HL-60(TB) leukemia
36.1 µM: HOP-62 NSCLC
> 100 µM: HCT-15 colon | CCRF-CEM leukemia | SK-MEL-28 melanoma | EKVX NSCLC | HCC-2998 colon | MDA-MB-231 breast | ACHN renal | UACC-62 melanoma | SW-620 colon | UO-31 renal | HCT-116 colon | U251 CNS | SR leukemia | SK-MEL-5 melanoma | PC-3 prostate | UACC-257 melanoma | SK-OV-3 ovarian | OVCAR-5 ovarian | MALME-3M melanoma | NCI-H460 lung | T-47D breast | A498 renal | COLO 205 colon | IGROV1 ovarian | LOX IMVI melanoma | MCF7 breast | K-562 leukemia | HT29 colon | MOLT-4 leukemia | RPMI-8226 leukemia | MDA-N | OVCAR-8 ovarian | M14 melanoma | A549 NSCLC | DU-145 prostate | SF-268 CNS | MDA-MB-435 | SNB-19 CNS
33.1 µM: SF-295 CNS
13 µM: CAKI-1 renal

NNC(=O)Nc1cccnc1
> 100 µM: HCT-15 colon | CCRF-CEM leukemia | SK-MEL-28 melanoma | EKVX NSCLC | HCC-2998 colon | MDA-MB-231 breast | ACHN renal | UACC-62 melanoma | KM12 colon | SW-620 colon | SF-539 CNS | HOP-92 NSCLC | RXF 393 renal | SNB-75 CNS | UO-31 renal | HCT-116 colon | U251 CNS | SK-MEL-5 melanoma | PC-3 prostate | NCI-H226 lung | UACC-257 melanoma | SN12C renal | SK-OV-3 ovarian | OVCAR-5 ovarian | OVCAR-4 ovarian | NCI/ADR-RES ovarian | MALME-3M melanoma | T-47D breast | A498 renal | CAKI-1 renal | COLO 205 colon | TK-10 renal | IGROV1 ovarian | LOX IMVI melanoma | MCF7 breast | HOP-62 NSCLC | K-562 leukemia | HT29 colon | SK-MEL-2 melanoma | HL-60(TB) leukemia | NCI-H23 lung | SF-295 CNS | RPMI-8226 leukemia | MDA-N | OVCAR-8 ovarian | M14 melanoma | A549 NSCLC | DU-145 prostate | OVCAR-3 ovarian | NCI-H522 lung | MDA-MB-435 | SNB-19 CNS | 786-0 renal
